# Test results published in patent US20060264460A1 (Wyeth, priority 2005, published 2006).
# Molecular target: T1, human Cot/Tpl2 kinase (Homo sapiens, UniProt P41279)
# T1 construct: human Cot/Tpl2 kinase construct encoding residues 30-398; 6His (N); made in house; host or cells: Sf9 insect cells, baculovirus system (BD Biosciences)
# Assay: Tpl2/Cot kinase assay: GST-MEK1 phosphorylation detected by ELISA (DELFIA Eu)
# Format: biochemical
# Settings: Table 2; Tpl2/Cot kinase, GST-MEK1 substrate, 50 uM ATP
# Method in brief: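 Substrate phosphorylation (GST-MEK1 Ser217/221) quantified by DELFIA europium ELISA, yielding IC50 values. Reaction: 1 h at 30° C, pH 7.2 MOPS buffer, 50 uM ATP, 35 nM GST-MEK1, 0.4 nM monomeric His-Tpl2 purified from Sf9 cells, compounds at 1% final DMSO; stopped with EDTA.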
# T1 sequence (P41279 30-398): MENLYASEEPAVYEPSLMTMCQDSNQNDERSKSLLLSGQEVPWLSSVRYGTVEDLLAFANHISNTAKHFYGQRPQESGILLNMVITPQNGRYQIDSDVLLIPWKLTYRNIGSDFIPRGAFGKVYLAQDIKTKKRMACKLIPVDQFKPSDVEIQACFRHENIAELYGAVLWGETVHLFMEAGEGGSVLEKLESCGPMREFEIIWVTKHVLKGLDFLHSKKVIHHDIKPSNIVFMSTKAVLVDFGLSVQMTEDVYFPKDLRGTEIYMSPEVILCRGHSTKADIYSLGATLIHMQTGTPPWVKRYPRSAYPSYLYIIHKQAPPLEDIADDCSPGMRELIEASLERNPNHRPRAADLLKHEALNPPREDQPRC
row,IC50,SMILES
1,> 3000 nM,CN(C)Cc1cn(C2CCCC2Nc2cc(Cl)c3ncc(C#N)c(Nc4ccc(F)c(Cl)c4)c3c2)nn1 (centres unmarked) [Example 636]
2,> 3000 nM,N#Cc1cnc2c(Cl)cc(NCC(CO)c3ccncc3)cc2c1Nc1ccc(F)c(Cl)c1 (centres unmarked) [Example 637]
3,> 3000 nM,N#Cc1cnc2c(Br)cc(NCc3cn(COCc4ccccc4)nn3)cc2c1Nc1ccc(F)c(Cl)c1 [Example 638]
4,200 nM,CC(CNc1cc(Cl)c2ncc(C#N)c(Nc3ccc(F)c(Cl)c3)c2c1)c1ccncc1 (centres unmarked) [Example 639]
5,> 3000 nM,CCN(C[C@@H]1CCCN1)c1cc(Cl)c2ncc(C#N)c(Nc3ccc(F)c(Cl)c3)c2c1 [Example 640]

# Same assay, conditions: Tpl2/Cot kinase, GST-MEK1 substrate, 50 uM ATP
row,SMILES,IC50
1,CCN(C[C@@H]1CCCN1C(C)=O)c1cc(Cl)c2ncc(C#N)c(Nc3ccc(F)c(Cl)c3)c2c1 [Example 644],> 3000 nM
2,CN(C)CC1CCCCC1Nc1cc(Cl)c2ncc(C#N)c(Nc3ccc(F)c(Cl)c3)c2c1 (centres unmarked) [Example 646],> 3000 nM
3,CN1CCCC1CCNC(=O)Cn1cc(CNc2cc(Cl)c3ncc(C#N)c(Nc4ccc(F)c(Cl)c4)c3c2)nn1 (centres unmarked) [Example 651],6.9 nM
4,CC(C)(C)OC(=O)N1CCC(Nc2ccc3ncc(C#N)c(Nc4ccc(F)c(Cl)c4)c3c2)CC1 [Example 656],> 40000 nM
5,N#Cc1cnc2ccc(NC3CCN(Cc4ccccc4)CC3)cc2c1Nc1ccc(F)c(Cl)c1 [Example 657],1700 nM
6,CC(C)N1CCC(Nc2ccc3ncc(C#N)c(Nc4ccc(F)c(Cl)c4)c3c2)CC1 [Example 658],25500 nM
7,CCN1CCC(Nc2ccc3ncc(C#N)c(Nc4ccc(F)c(Cl)c4)c3c2)C(C)C1 (centres unmarked) [Example 659],> 40000 nM
8,CC(=O)Nc1cc(Br)c2ncc(C#N)c(Nc3ccc(F)c(Cl)c3)c2c1 [Example 660],4700 nM
9,N#Cc1cnc2c(Br)cc(NCc3cn(C45CC6CC(CC(C6)C4)C5)nn3)cc2c1Nc1ccc(F)c(Cl)c1 [Example 661],1700 nM
10,CN(C)CCCn1cc(CNc2cc(Br)c3ncc(C#N)c(Nc4ccc(F)c(Cl)c4)c3c2)nn1 [Example 662],20 nM
11,CN(C)CCn1cc(CNc2cc(Br)c3ncc(C#N)c(Nc4ccc(F)c(Cl)c4)c3c2)nn1 [Example 663],24 nM
12,Cn1cnc(CNc2cc(Br)c3ncc(C#N)c(Nc4ccc(F)c(Cl)c4)c3c2)n1 [Example 664],200 nM
13,N#Cc1cnc2c(Cl)cc(NCc3nc[nH]n3)cc2c1Nc1ccc(F)c(Cl)c1 [Example 666],100 nM
14,N#Cc1cnc2c(Br)cc(NCc3nc[nH]n3)cc2c1Nc1ccc(F)c(Cl)c1 [Example 667],110 nM
15,N#Cc1cnc2c(Br)cc(NCc3cncn3CCN3CCOCC3)cc2c1Nc1ccc(F)c(Cl)c1 [Example 668],160 nM
16,N#Cc1cnc2c(Br)cc(NCc3cn(CCN4CCOCC4)cn3)cc2c1Nc1ccc(F)c(Cl)c1 [Example 669],41 nM
17,N#Cc1cnc2c(Cl)cc(NCc3cn(CCN4CCOCC4)cn3)cc2c1Nc1ccc(F)c(Cl)c1 [Example 670],33 nM
18,N#Cc1cnc2c(Cl)cc(NCc3cncn3CCN3CCOCC3)cc2c1Nc1ccc(F)c(Cl)c1 [Example 671],62 nM
19,N#Cc1cnc2c(Br)cc(NCc3cn(CC(F)(F)F)nn3)cc2c1Nc1ccc(F)c(Cl)c1 [Example 673],100 nM
20,CC(C)(C)OC(=O)N1CCC(CCn2cc(CNc3cc(Cl)c4ncc(C#N)c(Nc5ccc(F)c(Cl)c5)c4c3)nn2)CC1 [Example 674],75 nM
21,CC(C)(C)OC(=O)N1CCC(CCn2cc(CNc3cc(Br)c4ncc(C#N)c(Nc5ccc(F)c(Cl)c5)c4c3)nn2)CC1 [Example 675],130 nM
22,CN(CCn1cc(CNc2cc(Cl)c3ncc(C#N)c(Nc4ccc(F)c(Cl)c4)c3c2)nn1)C(=O)OC(C)(C)C [Example 676],48 nM
23,CN(CCn1cc(CN(Cc2cn(CCN(C)C(=O)OC(C)(C)C)nn2)c2cc(Br)c3ncc(C#N)c(Nc4ccc(F)c(Cl)c4)c3c2)nn1)C(=O)OC(C)(C)C [Example 677],4700 nM
24,CN(CCn1cc(CNc2cc(Br)c3ncc(C#N)c(Nc4ccc(F)c(Cl)c4)c3c2)nn1)C(=O)OC(C)(C)C [Example 678],67 nM
25,CN1CCC(Cn2cc(CN(C)c3cc(Br)c4ncc(C#N)c(Nc5ccc(F)c(Cl)c5)c4c3)nn2)CC1 [Example 679],290 nM
26,CN1CCC(Cn2cc(CNc3cc(Br)c4ncc(C#N)c(Nc5ccc(F)c(Cl)c5)c4c3)nn2)CC1 [Example 680],12 nM
27,CN1CCC(n2cc(CN(C)c3cc(Br)c4ncc(C#N)c(Nc5ccc(F)c(Cl)c5)c4c3)nn2)CC1 [Example 681],22 nM

# Other lines, results leading:
row,IC50,SMILES
1,82 nM,CSCCn1cc(CNc2cc(Br)c3ncc(C#N)c(Nc4ccc(F)c(Cl)c4)c3c2)nn1 [Example 682]
2,62 nM,COCCCc1nc[nH]c1CNc1cc(Br)c2ncc(C#N)c(Nc3ccc(F)c(Cl)c3)c2c1 [Example 683]
3,38 nM,CNCCn1cc(CNc2cc(Br)c3ncc(C#N)c(Nc4ccc(F)c(Cl)c4)c3c2)nn1 [Example 684]
4,29 nM,CNCCn1cc(CNc2cc(Cl)c3ncc(C#N)c(Nc4ccc(F)c(Cl)c4)c3c2)nn1 [Example 685]
5,28 nM,N#Cc1cnc2c(Br)cc(NCc3cn(CCO)nn3)cc2c1Nc1ccc(F)c(Cl)c1 [Example 686]
6,90 nM,N#Cc1cnc2c(Br)cc(NCc3cn(CCC4CCNCC4)nn3)cc2c1Nc1ccc(F)c(Cl)c1 [Example 691]
7,130 nM,N#Cc1cnc2c(Cl)cc(NCc3cn(CCC4CCNCC4)nn3)cc2c1Nc1ccc(F)c(Cl)c1 [Example 692]
8,> 3000 nM,CC(C)(C)OC(=O)N1CCC(CCn2cc(CN(Cc3cn(CCC4CCN(C(=O)OC(C)(C)C)CC4)nn3)c3cc(Br)c4ncc(C#N)c(Nc5ccc(F)c(Cl)c5)c4c3)nn2)CC1 [Example 693]
9,91 nM,CS(=O)(=O)CCn1cc(CNc2cc(Br)c3ncc(C#N)c(Nc4ccc(F)c(Cl)c4)c3c2)nn1 [Example 694]
10,44 nM,CN1CCC(CCn2cc(CNc3cc(Br)c4ncc(C#N)c(Nc5ccc(F)c(Cl)c5)c4c3)nn2)CC1 [Example 695]
11,1.7 nM,CN1CCC(CCn2cc(CNc3cc(Cl)c4ncc(C#N)c(Nc5ccc(F)c(Cl)c5)c4c3)nn2)CC1 [Example 696]
12,18 nM,N#Cc1cnc2c(Br)cc(NCc3cn(CCCO)nn3)cc2c1Nc1ccc(F)c(Cl)c1 [Example 697]
13,18 nM,COCCn1cc(CNc2cc(Br)c3ncc(C#N)c(Nc4ccc(F)c(Cl)c4)c3c2)nn1 [Example 698]
14,53 nM,N#Cc1cnc2c(Br)cc(NCc3cn(CCS(=O)(=O)C4CCCC4)nn3)cc2c1Nc1ccc(F)c(Cl)c1 [Example 699]
15,110 nM,N#Cc1cnc2c(Br)cc(NCc3cnc4cnccn34)cc2c1Nc1ccc(F)c(Cl)c1 [Example 700]
16,280 nM,N#Cc1cnc2c(Br)cc(NCc3cnc4ccccn34)cc2c1Nc1ccc(F)c(Cl)c1 [Example 701]
17,43 nM,CS(=O)(=O)CCn1cnc(CNc2cc(Br)c3ncc(C#N)c(Nc4ccc(F)c(Cl)c4)c3c2)c1 [Example 702]
18,120 nM,C[S+]([O-])Cn1cc(CNc2cc(Br)c3ncc(C#N)c(Nc4ccc(F)c(Cl)c4)c3c2)nn1 (centres unmarked) [Example 703]
19,33 nM,CS(=O)(=O)Cn1cc(CNc2cc(Br)c3ncc(C#N)c(Nc4ccc(F)c(Cl)c4)c3c2)nn1 [Example 704]
20,12 nM,CSCn1cc(CNc2cc(Br)c3ncc(C#N)c(Nc4ccc(F)c(Cl)c4)c3c2)nn1 [Example 705]
21,3.1 nM,N#Cc1cnc2c(Br)cc(NCc3cn(Cc4cccnc4)cn3)cc2c1Nc1ccc(F)c(Cl)c1 [Example 706]
